Laboratory results taken from the NIST ThermoML archive (doi:10.1016/j.jct.2008.05.014).

Test: xn = mol fraction of the nth substance listed
Details: Liquid; for speed of sound: Pulse-echo method

CCCCCCCCCCCC [dodecane] + CCCCCCC
Details | mass density [kg/m3] | speed of sound [m/s]
303.17 K, 101 kPa, x2 = 0.2001 | – | 1238.5
308.11 K, 30390 kPa, x2 = 0.9391 | – | 1298.5
308.11 K, 30390 kPa, x2 = 0.97 | – | 1294.9
308.11 K, 45590 kPa, x2 = 0.9391 | – | 1376.1
308.11 K, 45590 kPa, x2 = 0.97 | – | 1373
308.11 K, 60790 kPa, x2 = 0.9391 | – | 1445.9
308.11 K, 60790 kPa, x2 = 0.97 | – | 1443.2
308.11 K, 75990 kPa, x2 = 0.9391 | – | 1509.5
308.11 K, 75990 kPa, x2 = 0.97 | – | 1507.2
308.11 K, 91180 kPa, x2 = 0.9391 | – | 1568
308.11 K, 101320 kPa, x2 = 0.4999 | – | 1649.5
308.11 K, 101320 kPa, x2 = 0.9391 | – | 1605.3
308.11 K, 101320 kPa, x2 = 0.97 | – | 1603.3
308.12 K, 101 kPa, x2 = 0 | – | 1240.2
308.12 K, 101 kPa, x2 = 0.6 | – | 1164.6
308.12 K, 101 kPa, x2 = 0.8995 | – | 1109.6
308.12 K, 15200 kPa, x2 = 0.9391 | – | 1209.5
308.12 K, 15200 kPa, x2 = 0.97 | – | 1205.4
308.12 K, 45590 kPa, x2 = 0.1014 | – | 1468.2
308.12 K, 45590 kPa, x2 = 0.4999 | – | 1432.7
308.12 K, 60790 kPa, x2 = 0.1014 | – | 1531
308.12 K, 75990 kPa, x2 = 0.1014 | – | 1589.4
308.12 K, 91180 kPa, x2 = 0.1014 | – | 1643.8
308.12 K, 91180 kPa, x2 = 0.4999 | – | 1614.6
308.12 K, 91180 kPa, x2 = 0.97 | – | 1565.8
308.12 K, 101320 kPa, x2 = 0.1014 | – | 1677.8
308.13 K, 101 kPa, x2 = 0.3002 | – | 1207.1
308.13 K, 101 kPa, x2 = 0.7002 | – | 1147.7
308.13 K, 101 kPa, x2 = 0.8 | – | 1129.6
308.13 K, 15200 kPa, x2 = 0.1014 | – | 1321.5
308.13 K, 15200 kPa, x2 = 0.4999 | – | 1278.8
308.13 K, 30390 kPa, x2 = 0.1014 | – | 1398.8
308.13 K, 30390 kPa, x2 = 0.3007 | – | 1379.7
308.13 K, 30390 kPa, x2 = 0.4999 | – | 1360.2
308.13 K, 30390 kPa, x2 = 0.5003 | – | 1360.2
308.13 K, 30390 kPa, x2 = 0.7007 | – | 1334.7
308.13 K, 45590 kPa, x2 = 0.3007 | – | 1450.6
308.13 K, 45590 kPa, x2 = 0.7007 | – | 1409.4
308.13 K, 60790 kPa, x2 = 0.4999 | – | 1498.1
308.13 K, 60790 kPa, x2 = 0.5003 | – | 1498.2
308.13 K, 60790 kPa, x2 = 0.7007 | – | 1476.6
308.13 K, 75990 kPa, x2 = 0 | – | 1596.8
308.13 K, 75990 kPa, x2 = 0.4999 | – | 1558.1
308.13 K, 75990 kPa, x2 = 0.5003 | – | 1558.2
308.13 K, 75990 kPa, x2 = 0.7007 | – | 1537.9
308.13 K, 91180 kPa, x2 = 0 | – | 1650.9
308.13 K, 91180 kPa, x2 = 0.3007 | – | 1629.5
308.13 K, 91180 kPa, x2 = 0.5003 | – | 1614.7
308.13 K, 91180 kPa, x2 = 0.7007 | – | 1595.3
308.13 K, 101320 kPa, x2 = 0.3007 | – | 1664.1
308.13 K, 101320 kPa, x2 = 0.5003 | – | 1649.8
308.13 K, 101320 kPa, x2 = 0.7007 | – | 1631.3
308.14 K, 101 kPa, x2 = 0.3996 | – | 1194.1
308.14 K, 15200 kPa, x2 = 0 | – | 1331
308.14 K, 15200 kPa, x2 = 0.3007 | – | 1300.4
308.14 K, 15200 kPa, x2 = 0.5003 | – | 1278.7
308.14 K, 15200 kPa, x2 = 0.7007 | – | 1250.1
308.14 K, 30390 kPa, x2 = 0 | – | 1407.6
308.14 K, 45590 kPa, x2 = 0 | – | 1476.3
308.14 K, 45590 kPa, x2 = 0.5003 | – | 1432.6
308.14 K, 60790 kPa, x2 = 0 | – | 1538.6
308.14 K, 60790 kPa, x2 = 0.3007 | – | 1515
308.14 K, 75990 kPa, x2 = 0.3007 | – | 1574.3
308.15 K, 101 kPa, x2 = 0 | 738.031 | –
308.15 K, 101 kPa, x2 = 0.0991 | 733.816 | –
308.15 K, 101 kPa, x2 = 0.1007 | – | 1230
308.15 K, 101 kPa, x2 = 0.2001 | – | 1219
308.15 K, 101 kPa, x2 = 0.2008 | 729.111 | –
308.15 K, 101 kPa, x2 = 0.2998 | 724.073 | –
308.15 K, 101 kPa, x2 = 0.3996 | 718.583 | –
308.15 K, 101 kPa, x2 = 0.5 | 712.522 | –
308.15 K, 101 kPa, x2 = 0.5002 | – | 1179.8
308.15 K, 101 kPa, x2 = 0.6 | 705.898 | –
308.15 K, 101 kPa, x2 = 0.7005 | 698.575 | –
308.15 K, 101 kPa, x2 = 0.7995 | 690.497 | –
308.15 K, 101 kPa, x2 = 0.8486 | 686.148 | –
308.15 K, 101 kPa, x2 = 0.8988 | 681.426 | –
308.15 K, 101 kPa, x2 = 0.9498 | 676.348 | –
308.15 K, 15200 kPa, x2 = 0.8496 | – | 1227.4
308.15 K, 30390 kPa, x2 = 0.8496 | – | 1314.4
308.15 K, 45590 kPa, x2 = 0.8496 | – | 1390.8
308.15 K, 60790 kPa, x2 = 0.8496 | – | 1459.7
308.15 K, 75990 kPa, x2 = 0.8496 | – | 1522.3
308.15 K, 91180 kPa, x2 = 0.8496 | – | 1580.4
308.15 K, 101320 kPa, x2 = 0.8496 | – | 1617.2
313.08 K, 15200 kPa, x2 = 0.9391 | – | 1191.3
313.08 K, 30390 kPa, x2 = 0.9391 | – | 1281.8
313.08 K, 45590 kPa, x2 = 0.9391 | – | 1360.6
313.08 K, 60790 kPa, x2 = 0.9391 | – | 1431.4
313.08 K, 75990 kPa, x2 = 0.9391 | – | 1495.6
313.08 K, 91180 kPa, x2 = 0.9391 | – | 1554.5
313.08 K, 101320 kPa, x2 = 0.4999 | – | 1636.7
313.08 K, 101320 kPa, x2 = 0.9391 | – | 1592.1
313.09 K, 30390 kPa, x2 = 0.97 | – | 1278.1
313.09 K, 45590 kPa, x2 = 0.97 | – | 1357.5
313.09 K, 60790 kPa, x2 = 0.4999 | – | 1483.8
313.09 K, 60790 kPa, x2 = 0.97 | – | 1428.5
313.09 K, 75990 kPa, x2 = 0.4999 | – | 1544.2
313.09 K, 75990 kPa, x2 = 0.97 | – | 1493.1
313.09 K, 91180 kPa, x2 = 0.4999 | – | 1601.2
313.09 K, 91180 kPa, x2 = 0.97 | – | 1552.3
313.09 K, 101320 kPa, x2 = 0.97 | – | 1589.9
313.1 K, 101 kPa, x2 = 0 | – | 1221
313.1 K, 101 kPa, x2 = 0.6 | – | 1144.4
313.1 K, 101 kPa, x2 = 0.8995 | – | 1088.5
313.1 K, 15200 kPa, x2 = 0.4999 | – | 1261.2
313.1 K, 15200 kPa, x2 = 0.97 | – | 1186.9
313.1 K, 30390 kPa, x2 = 0.4999 | – | 1344.1
313.1 K, 45590 kPa, x2 = 0.4999 | – | 1417.6
313.1 K, 60790 kPa, x2 = 0.7007 | – | 1462.1
313.1 K, 91180 kPa, x2 = 0.7007 | – | 1581.9
313.1 K, 101320 kPa, x2 = 0.1014 | – | 1665
313.11 K, 101 kPa, x2 = 0.3002 | – | 1187.6
313.11 K, 101 kPa, x2 = 0.3996 | – | 1174.4
313.11 K, 101 kPa, x2 = 0.7002 | – | 1127.3
313.11 K, 15200 kPa, x2 = 0.1014 | – | 1304
313.11 K, 15200 kPa, x2 = 0.3007 | – | 1282.9
313.11 K, 15200 kPa, x2 = 0.7007 | – | 1232.2
313.11 K, 30390 kPa, x2 = 0.1014 | – | 1382.7
313.11 K, 30390 kPa, x2 = 0.3007 | – | 1363.6
313.11 K, 30390 kPa, x2 = 0.5003 | – | 1344.2
313.11 K, 30390 kPa, x2 = 0.7007 | – | 1318.2
313.11 K, 45590 kPa, x2 = 0.1014 | – | 1453
313.11 K, 45590 kPa, x2 = 0.5003 | – | 1417.5
313.11 K, 45590 kPa, x2 = 0.7007 | – | 1393.8
313.11 K, 60790 kPa, x2 = 0.1014 | – | 1516.7
313.11 K, 60790 kPa, x2 = 0.5003 | – | 1483.9
